{
  "source": "patent US20240425857A1",
  "about": "“Means and Methods for Chronic Wound Healing” (VIB VZW, priority 2021, published 2024)",
  "molecules": {"B1": {"name": "rGDF15: recombinant human GDF-15 (R&D Systems), member of the TGF-β superfamily (protein, UniProt Q99988 195-308, looked up)", "Growth/differentiation factor …": "ARARNGDHCPLGPGRCCRLHTVRASLEDLGWADWVLSPREVQVTMCIGACPSQFRAANMHAQIKTSLHRLKPDTVPAPCCVPASYNPMVLIQKTDTGVSLQTYDDLLAKDCHCI"}},
  "key": {"[1]": {"test_system": "dendritic cells (BMDC)", "test": "Efferocytosis assay: dendritic cells incubated with apoptotic Jurkat cells (flow cytometry or Incucyte live-cell imaging)", "format": "cell-based, mouse", "conditions": "apoptotic Jurkat targets; for erastin-dependent increase in efferocytosis by dendritic cells: inhibitor given together with 5 μM erastin; for efferocytosis (apoptotic cell uptake) by dendritic cells: 1:5 phagocyte:target ratio, cells pretreated 1 hour with the substance", "protocol": "(§1) Efferocytosis assays. For induction of apoptosis, human Jurkat T cells were with stained with CypHerSE (#PA15401, GE Healthcare) or TAMRA (#C-1171, Invitrogen) or pHrodo™ Green STP Ester (#P35369, ThermoFisher), resuspended in RPMI with 5% fetal calf serum, treated with 150 mJ/cm^2 ultraviolet C irradiation (Stratalinker) and incubated for 4 h at 37° C. with 5% CO2. Dendritic cells were incubated with apoptotic targets at a 1:5 phagocyte: target ratio for the indicated times. Phagocytosis was assessed by a flow cytometry-based assay^21 or by Incucyte Live-cell imaging. As alternative targets for phagocytosis, dendritic cells were incubated with pHrodo™ Green E. coli BioParticles™ (#P35366, ThermoFisher) or Streptavidin Fluoresbrite® YG Microspheres, 2.0 μm (for simplicity, beads) at a 1:5 phagocyte: target ratio for the indicated times. When applicable, cells were pretreated for 1 hour with 5 μM erastin (#S7242, Bio-Connect B.V), 200 μM CP-91149 (#S2717, Bio-Connect B.V.), 0.2 mM 2-DG (2-Deoxy-D-glucose; #D8375-1G, Sigma), 5 μM UK5099 (#PZ0160, Sigma), 40 μM DON (6-Diazo-5-oxo-L-norleucine; #D2141-5 MG, Sigma), 10 μM 3-BP (3-Bromo-2-oxopropionic acid, #376817-M, Sigma), 10 mM Glutamate (#6106 Apr. 3, Sigma) before addition of targets."}, "[2]": {"test_system": "dendritic cells", "test": "Determination of glycogen concentration in dendritic cells", "format": "cell-based, mouse", "conditions": "CP-91149 added to erastin-treated BMDC", "protocol": "Determination of glycogen concentration. The glycogen concentration was measured using a Glycogen Colorimetric/Fluorometric Assay Kit (#GENT-K646-10, BioVision) according to the manufacturer's instructions."}, "[3]": {"test_system": "C57BL/6J mice", "test": "Full-thickness skin wounding (8-mm punch biopsy), wound healing in wild-type mice", "format": "in vivo, mouse", "text": "(§2) Skin wounding and erastin regimen. Full-thickness wounds were made as previously described^65.56 Briefly, wounds were made on shaved back skin by using 8-mm punch biopsy needles (Stiefel Instruments) under analgesia and general anesthesia in 8-week-old female C57BL/6J, B6.BKS (D)-Leprdb/J (db/db), GDF15KO, Slc7a11KO and control littermates. For wound healing experiments, assuming standard deviations of 10-15%, an experimental group of n=10 is needed to obtain statistical power of 90% (significance level 0.05) and detect a difference between means of 20%, using two-tailed paired T-testing. No animals were excluded from any experiment.\nFor topical applications, mice were intradermally injected with Imidazole ketone erastin (IKE at 20 mg kg^−1 in 100 μl PBS; MedChemExpress, #HY-114481) or recombinant human GDF-15 (0.7 mg kg^−1 in 100 μl PBS; R&D Systems, #9279-GD-050) or RSL3 (20 mg kg-1 in 100 μl PBS; Sellechem, #S8155) or the respective vehicle controls (DMSO or 4 mM HCl in 100 μl PBS) at the time of wounding and for two consecutive days. For the experiments indicated as ‘erastin regimen’ or vehicle regimen, 5 million apoptotic Jurkat cells were administrated once on day 0 in 50 μl PBS on top of back skin immediately after full-thickness excision biopsy. […]"}, "[4]": {"test_system": "db/db mice", "test": "Full-thickness skin wounding, wound healing in diabetic db/db mice", "format": "in vivo, mouse", "conditions": "no apoptotic cell co-administration", "text": "as §2\nFor topical applications, mice were intradermally injected with Imidazole ketone erastin (IKE at 20 mg kg^−1 in 100 μl PBS; MedChemExpress, #HY-114481) or recombinant human GDF-15 (0.7 mg kg^−1 in 100 μl PBS; R&D Systems, #9279-GD-050) or RSL3 (20 mg kg-1 in 100 μl PBS; Sellechem, #S8155) or the respective vehicle controls (DMSO or 4 mM HCl in 100 μl PBS) at the time of wounding and for two consecutive days. For the experiments indicated as ‘erastin regimen’ or vehicle regimen, 5 million apoptotic Jurkat cells were administrated once on day 0 in 50 μl PBS on top of back skin immediately after full-thickness excision biopsy. For the mice injected intradermally with supernatants from efferocytic dendritic cells, supernatants from dendritic cells cultured with apoptotic Jurkat cells for 16 h were collected, centrifuged to eliminate debris and frozen or lyophilized for preservation."}, "[5]": {"test_system": "Slc7a11-deficient dendritic cells", "test": "Efferocytosis by Slc7a11-deficient (Slc7a11 KO) dendritic cells", "format": "cell-based, mouse", "conditions": "Slc7a11 KO BMDC, apoptotic Jurkat targets", "protocol": "as §1"}, "[6]": {"test_system": "dendritic cells", "format": "cell-based, mouse", "text": "FIG. 6D, Assessment of erastin drug cytotoxicity in dendritic cells by measuring Sytox Green fluorescence.\nFIG. 9B, Assessment of cytotoxicity of drugs tested on dendritic cells by measuring Sytox Green fluorescence."}},
  "note": "Entries after “also recorded” stand apart in the source; their conditions may differ.",
  "data": [
    {"molecule": "O=CC[C@@H](O)[C@H](O)[C@H](O)CO", "note": "[2-DG, 2-Deoxy-D-glucose]", "values": [
      {"measurement": "erastin-dependent increase in efferocytosis by dendritic cells", "setting": "[1]", "value": "abrogated the enhanced efferocytosis due to Slc7a11 inhibition"}
    ]},
    {"molecule": "O=C(O)C(=O)CBr", "note": "[3-BP, 3-Bromo-2-oxopropionic acid]", "values": [
      {"measurement": "erastin-dependent increase in efferocytosis by dendritic cells", "setting": "[1]", "value": "dampened the enhanced inhibition due to erastin treatment"}
    ]},
    {"molecule": "CN(C)C(=O)[C@H](O)[C@H](Cc1ccccc1)NC(=O)c1cc2cc(Cl)ccc2[nH]1", "note": "[CP-91149]", "values": [
      {"measurement": "glycogen levels in erastin-treated BMDC", "setting": "[2]", "value": "reversed the glycogen levels in erastin-treated BMDC almost to DMSO control"},
      {"measurement": "erastin-dependent increase in efferocytosis by dendritic cells", "setting": "[1]", "value": "strongly abrogated the erastin-dependent increase in efferocytosis"}
    ]},
    {"molecule": "[N-]=[N+]=CC(=O)CC[C@H](N)C(=O)O", "note": "[DON, 6-Diazo-5-oxo-L-norleucine]", "values": [
      {"measurement": "erastin-dependent increase in efferocytosis by dendritic cells", "setting": "[1]", "value": "marginally decreased the erastin-mediated augmented efferocytosis"}
    ]},
    {"molecule": "CC(C)Oc1ccc(C(=O)Cn2ccnc2)cc1-n1c(CN2CCN(C(=O)COc3ccc(Cl)cc3)CC2)nc2ccccc2c1=O", "note": "[IKE, Imidazole ketone erastin]", "values": [
      {"measurement": "wound healing, substance alone", "setting": "[3]; full-thickness wound, no co-treatment", "value": "did not improve wound healing"},
      {"measurement": "diabetic wound healing, substance alone", "setting": "[4]", "value": "improves skin wound healing in diabetic mice"}
    ]},
    {"molecule": "COc1ccc(N(C(=O)CCl)C(C(=O)NCCc2ccccc2)c2cccs2)cc1Cl", "note": "(stereo not drawn) [ML-162]", "values": [
      {"measurement": "efferocytosis (apoptotic cell uptake) by dendritic cells", "setting": "[1]", "value": "did not enhance efferocytosis; also recorded: does not enhance efferocytosis by dendritic cells"}
    ]},
    {"molecule": "COC(=O)c1ccc([C@@H]2c3[nH]c4ccccc4c3C[C@@H](C(=O)OC)N2C(=O)CCl)cc1", "note": "[RSL3]", "values": [
      {"measurement": "wound healing, given with apoptotic cells at day 0", "setting": "[3]; apoptotic Jurkat cells once on day 0, drug from day 0 to day 2", "value": "did not improve wound healing"}
    ]},
    {"molecule": "N#C/C(=C\\c1cn(-c2ccccc2)c2ccccc12)C(=O)O", "note": "[UK5099]", "values": [
      {"measurement": "erastin-dependent increase in efferocytosis by dendritic cells", "setting": "[1]", "value": "had no impact on efferocytosis"}
    ]},
    {"molecule": "C=C1[C@@H](C)[C@H]2[C@H](Cc3ccccc3)NC(=O)[C@]23[C@H](OC(C)=O)/C=C/[C@@](C)(O)C(=O)[C@@H](C)C/C=C/[C@H]3[C@@H]1O", "note": "[cytochalasin D]", "values": [
      {"measurement": "efferocytosis by Slc7a11-deficient dendritic cells", "setting": "[5]", "value": "abrogated"}
    ]},
    {"molecule": "CCOc1ccccc1-n1c(C(C)N2CCN(C(=O)COc3ccc(Cl)cc3)CC2)nc2ccccc2c1=O", "note": "(stereo not drawn) [erastin]", "values": [
      {"measurement": "dendritic cell viability", "setting": "[6]", "value": "did not affect dendritic cell viability"}
    ]},
    {"molecule": "N[C@@H](CCC(=O)O)C(=O)O", "note": "[glutamate]", "values": [
      {"measurement": "efferocytosis (apoptotic cell uptake) by dendritic cells", "setting": "[1]", "value": "boosted efferocytosis"}
    ]},
    {"molecule": "B1", "values": [
      {"measurement": "diabetic wound healing, substance alone", "setting": "[4]", "value": "significantly improved wound healing in the db/db mice"},
      {"measurement": "diabetic wound healing, substance alone", "setting": "[4]; listed as recombinant GDF15", "value": "boosts healing"}
    ]}
  ]
}
